Values quoted from earlier work, collected in paper PMC3362725, “An open-label, phase 1 study evaluating safety, tolerability, and pharmacokinetics of linifanib (ABT-869) in Japanese patients with solid tumors” (Cancer Chemotherapy and Pharmacology, 2012).

Set-up: method as in PMID 17634482, PMID 17557949, PMID 21131369
Settings: mixed-population TKI phase 1 studies, phase 2 recommended dose levels; cited from earlier work

SMILES: Cc1cc2c(F)c(Oc3ncnn4cc(OC[C@@H](C)O)c(C)c34)ccc2[nH]1 [brivanib]
- patients with Grade 3 hypertension: 14–20%

SMILES: CC1(C)CNc2cc(NC(=O)c3cccnc3NCc3ccncc3)ccc21 [motesanib]
- patients with Grade 3 hypertension: 14–20%
